The record followed here is ChEMBL document CHEMBL4184100, “Discovery of 2-arylquinazoline derivatives as a new class of ASK1 inhibitors” (Bioorg Med Chem Lett, 2018).

≈ marks a conversion by molar mass, not a printed value.

Data set [1] concerns the target T1, Mitogen-activated protein kinase kinase kinase 5 (Homo sapiens, UniProt Q99683).
T1 sequence (Q99683 whole entry): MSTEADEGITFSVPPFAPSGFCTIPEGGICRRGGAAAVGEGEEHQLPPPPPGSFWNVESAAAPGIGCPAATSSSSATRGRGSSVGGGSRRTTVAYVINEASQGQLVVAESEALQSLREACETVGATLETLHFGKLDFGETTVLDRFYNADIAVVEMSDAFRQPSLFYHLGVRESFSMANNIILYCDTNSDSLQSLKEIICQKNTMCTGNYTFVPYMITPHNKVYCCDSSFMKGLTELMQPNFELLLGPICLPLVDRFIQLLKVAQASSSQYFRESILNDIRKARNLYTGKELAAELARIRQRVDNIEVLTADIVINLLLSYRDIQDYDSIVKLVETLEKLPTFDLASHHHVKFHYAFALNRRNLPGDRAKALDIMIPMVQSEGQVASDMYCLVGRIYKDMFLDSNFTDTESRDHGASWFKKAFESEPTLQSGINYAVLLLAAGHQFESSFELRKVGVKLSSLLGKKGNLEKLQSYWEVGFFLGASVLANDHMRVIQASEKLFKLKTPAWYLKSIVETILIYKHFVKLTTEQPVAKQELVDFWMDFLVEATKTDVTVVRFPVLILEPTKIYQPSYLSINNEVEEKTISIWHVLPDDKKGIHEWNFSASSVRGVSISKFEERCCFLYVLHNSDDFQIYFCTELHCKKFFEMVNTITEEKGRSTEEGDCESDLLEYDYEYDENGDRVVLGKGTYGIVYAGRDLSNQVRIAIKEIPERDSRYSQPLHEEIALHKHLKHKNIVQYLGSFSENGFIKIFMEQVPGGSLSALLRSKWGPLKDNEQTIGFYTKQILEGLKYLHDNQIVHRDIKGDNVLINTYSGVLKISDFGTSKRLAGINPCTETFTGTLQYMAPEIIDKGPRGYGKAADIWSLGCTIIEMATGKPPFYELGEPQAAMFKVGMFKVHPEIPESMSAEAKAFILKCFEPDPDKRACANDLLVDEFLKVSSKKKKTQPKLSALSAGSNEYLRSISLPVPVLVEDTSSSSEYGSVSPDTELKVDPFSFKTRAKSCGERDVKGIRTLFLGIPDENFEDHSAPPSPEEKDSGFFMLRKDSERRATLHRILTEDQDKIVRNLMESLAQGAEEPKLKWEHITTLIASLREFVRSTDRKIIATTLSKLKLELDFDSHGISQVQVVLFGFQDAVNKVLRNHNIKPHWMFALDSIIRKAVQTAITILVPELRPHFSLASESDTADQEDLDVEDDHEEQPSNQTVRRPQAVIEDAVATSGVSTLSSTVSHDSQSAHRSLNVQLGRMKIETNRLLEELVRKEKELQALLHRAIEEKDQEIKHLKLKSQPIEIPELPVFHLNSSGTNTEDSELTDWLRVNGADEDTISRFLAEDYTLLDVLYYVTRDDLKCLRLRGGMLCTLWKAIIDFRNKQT
The experiment in a line: Inhibition of stress-activated full length recombinant human N-terminal GST-tagged ASK1 expressed in baculovirus expression system using MKK6 as substrate pretreated for 10 mins followed by substrate addition by Alphascreen assay. On the technique in general: Alpha assays give light when donor and acceptor beads are brought close together.

In another data set the target is CYP2C9 (Homo sapiens, UniProt P11712). The experiment in a line: Inhibition of CYP2C9 (unknown origin) at 10 uM relative to control. In kind it is ADME.
Chain of CYP2C9 (P11712 whole entry): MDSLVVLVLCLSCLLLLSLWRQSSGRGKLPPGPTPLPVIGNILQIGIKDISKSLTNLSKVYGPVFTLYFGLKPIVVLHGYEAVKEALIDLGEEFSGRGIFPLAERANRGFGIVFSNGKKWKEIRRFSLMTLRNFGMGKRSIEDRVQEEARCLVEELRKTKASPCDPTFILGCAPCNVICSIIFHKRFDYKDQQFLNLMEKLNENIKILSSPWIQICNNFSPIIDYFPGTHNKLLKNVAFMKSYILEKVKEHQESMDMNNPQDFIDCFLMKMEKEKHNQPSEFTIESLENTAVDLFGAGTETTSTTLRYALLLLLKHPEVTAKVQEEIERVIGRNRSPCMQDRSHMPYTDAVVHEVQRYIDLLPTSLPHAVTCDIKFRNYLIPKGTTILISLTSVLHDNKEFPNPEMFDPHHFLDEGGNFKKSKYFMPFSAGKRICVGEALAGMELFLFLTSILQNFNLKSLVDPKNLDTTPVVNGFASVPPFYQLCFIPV
The target in another data set is CYP3A4 (Homo sapiens, UniProt P08684). The data set is described as follows: Inhibition of CYP3A4 (unknown origin) at 10 uM relative to control. Type of data set: ADME.
Chain of CYP3A4 (P08684 whole entry): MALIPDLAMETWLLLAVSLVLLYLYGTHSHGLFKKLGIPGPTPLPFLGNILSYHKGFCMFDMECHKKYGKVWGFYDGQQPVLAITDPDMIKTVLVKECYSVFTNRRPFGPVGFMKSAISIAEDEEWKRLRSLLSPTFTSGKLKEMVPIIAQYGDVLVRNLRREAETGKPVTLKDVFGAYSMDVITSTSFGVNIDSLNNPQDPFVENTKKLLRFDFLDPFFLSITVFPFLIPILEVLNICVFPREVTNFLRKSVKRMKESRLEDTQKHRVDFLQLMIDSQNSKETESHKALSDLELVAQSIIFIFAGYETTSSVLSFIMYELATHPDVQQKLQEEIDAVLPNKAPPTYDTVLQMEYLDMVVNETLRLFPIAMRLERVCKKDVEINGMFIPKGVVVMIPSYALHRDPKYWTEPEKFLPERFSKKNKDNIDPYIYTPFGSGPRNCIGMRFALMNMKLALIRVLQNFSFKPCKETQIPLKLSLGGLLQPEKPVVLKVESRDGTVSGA
The next data set concerns the target T2, CYP1A2 (Homo sapiens, UniProt P05177).
T2 sequence (P05177 whole entry): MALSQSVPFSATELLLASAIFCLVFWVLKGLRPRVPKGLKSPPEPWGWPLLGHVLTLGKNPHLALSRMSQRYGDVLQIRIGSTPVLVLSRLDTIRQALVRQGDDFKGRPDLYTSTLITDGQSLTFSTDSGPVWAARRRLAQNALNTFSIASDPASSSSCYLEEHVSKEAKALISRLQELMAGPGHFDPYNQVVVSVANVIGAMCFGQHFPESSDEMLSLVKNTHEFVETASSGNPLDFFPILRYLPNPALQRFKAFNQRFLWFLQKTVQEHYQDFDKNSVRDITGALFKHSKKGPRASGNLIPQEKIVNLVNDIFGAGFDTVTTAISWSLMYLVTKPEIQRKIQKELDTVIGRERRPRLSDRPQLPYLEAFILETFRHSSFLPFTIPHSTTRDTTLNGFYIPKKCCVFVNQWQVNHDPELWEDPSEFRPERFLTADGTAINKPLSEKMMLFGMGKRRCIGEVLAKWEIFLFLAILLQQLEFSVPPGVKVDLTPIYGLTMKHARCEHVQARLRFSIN
The data set is described as follows: Inhibition of CYP1A2 (unknown origin) at 10 uM relative to control. Type of data set: ADME.

The nature of data set [2]: Stability in rat liver microsomes. In kind it is ADME, microsome. Conditions: read-out: Stability. On the technique in general: Microsomes from liver hold many membrane-bound enzymes, among them those of drug oxidation.
Data set [3] in a line: Stability in mouse liver microsomes. In kind it is ADME, microsome. The note with it: read-out: Stability.
In another data set the target is CYP2D6 (Homo sapiens, UniProt P10635). The data set is described as follows: Inhibition of CYP2D6 (unknown origin) at 10 uM relative to control. Type of data set: ADME.
Chain of CYP2D6 (P10635 whole entry): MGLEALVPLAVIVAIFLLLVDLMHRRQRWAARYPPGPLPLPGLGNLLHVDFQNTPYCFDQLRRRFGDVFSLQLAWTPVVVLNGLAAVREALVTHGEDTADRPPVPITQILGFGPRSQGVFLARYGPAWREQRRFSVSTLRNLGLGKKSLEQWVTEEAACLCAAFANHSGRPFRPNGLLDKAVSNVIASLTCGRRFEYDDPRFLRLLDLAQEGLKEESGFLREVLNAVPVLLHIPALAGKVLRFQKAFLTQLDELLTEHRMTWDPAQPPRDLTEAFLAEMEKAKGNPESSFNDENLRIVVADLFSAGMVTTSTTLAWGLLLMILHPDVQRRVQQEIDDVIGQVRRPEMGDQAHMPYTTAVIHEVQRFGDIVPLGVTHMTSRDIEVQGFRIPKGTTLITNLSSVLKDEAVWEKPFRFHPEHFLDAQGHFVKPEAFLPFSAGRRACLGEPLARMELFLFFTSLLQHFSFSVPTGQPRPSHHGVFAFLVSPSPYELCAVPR
Data set [4] in a line: Stability in human liver microsomes. Type of data set: ADME, microsome. The note with it: read-out: Stability.
Data set [5] can be described thus: Solubility of the compound in phosphate buffered saline at pH 7.4. The note with it: buffer. Type of data set: physicochemical.
Compound in data set [6]: CC(=O)Nc1cccc(Nc2ncc3ccccc3n2)c1
The experiment in a line: ATP-competitive inhibition of full length recombinant human N-terminal GST-tagged ASK1 expressed in baculovirus expression system assessed as Km for substrate at 0.5 uM using MKK6 as substrate by Lineweaver-burk plot analysis (reference value: 6.08 +/- 0.4093 10^-6 M).

Compound in data set [7]: CC(=O)Nc1cccc(Nc2ncc3ccccc3n2)c1
The experiment in a line: ATP-competitive inhibition of full length recombinant human N-terminal GST-tagged ASK1 expressed in baculovirus expression system assessed as Km for substrate at 2 uM using MKK6 as substrate by Lineweaver-burk plot analysis (reference value: 6.08 +/- 0.4093 10^-6 M).

Compound in data set [8]: CC(=O)Nc1cccc(Nc2ncc3ccccc3n2)c1
The data set is described as follows: ATP-competitive inhibition of full length recombinant human N-terminal GST-tagged ASK1 expressed in baculovirus expression system assessed as Km for substrate at 1 uM using MKK6 as substrate by Lineweaver-burk plot analysis (reference value: 6.08 +/- 0.4093 10^-6 M).

As to `c1ccc(Nc2ncnc3nc[nH]c23)cc1`, the IC50 – broadly, the concentration that inhibits the measured activity by half – in data set [1] is more than 10 µM.

Take `CC(C)(C)C(=O)N(c1ccccc1)c1cccc(Nc2ncc3cc(Br)ccc3n2)c1`: the IC50 in data set [1] is more than 10 µM. On the same count and under the same terms, for `Nc1cccc(Nc2ncc3ccccc3n2)c1` the value was more than 10 µM. Still for that read-out and setting: for `Nc1cccc(Nc2ncc3cc(-c4cccc(N)c4)ccc3n2)c1` the value was more than 10 µM; for `c1ccc(Nc2ncc3ccccc3n2)cc1`, more than 10 µM. In the case of `Fc1ccc(Nc2ncnc3[nH]cnc23)cc1`, the half-inhibitory concentration (IC50) in data set [1] was more than 10 µM. As for `Nc1cccc(Nc2ncc3cc(Br)ccc3n2)c1`, the IC50 in data set [1] is more than 10 µM. Still for that read-out and setting: for `Cn1cc(-c2ccc3nc(Nc4cccc(N(C(=O)C(C)(C)C)c5ccccc5)c4)ncc3c2)cn1` the value was more than 10 µM. Still for that read-out and setting: then `CN(C)c1cccc(Nc2ncnc3[nH]cnc23)c1`, with more than 10 µM; and `c1ccc(Nc2ncc3cc(-c4cn[nH]c4)ccc3n2)cc1`, with more than 10 µM. Still for that read-out and setting: for `CC(=O)Nc1cccc(Nc2ncc3cc(-c4cnn(C)c4)ccc3n2)c1` the value was more than 10 µM; for `CC(C)(C)C(=O)N(c1ccccc1)c1cccc(Nc2ncc3cc(-c4cn[nH]c4)ccc3n2)c1`, more than 10 µM; for `Fc1ccc(Nc2ncc3ccccc3n2)cc1`, more than 10 µM.

As to `Clc1cccc(Nc2ncc3ccccc3n2)c1`, the IC50 in data set [1] is more than 10 µM.

`CN(C)c1cccc(Nc2nccc(NCCOc3ccccc3)n2)c1`: the IC50 in data set [1] came out at 2 µM. Same read-out and setting: then `CC(=O)Nc1cccc(Nc2ncnc3[nH]cnc23)c1`, with more than 10 µM. Same read-out and setting: then `Clc1cccc(Nc2ncnc3[nH]cnc23)c1`, with more than 10 µM; and `Cn1cc(-c2ccc3nc(Nc4ccccc4)ncc3c2)cn1`, with more than 10 µM; and `Cn1cc(-c2ccc3nc(Nc4cccc(N)c4)ncc3c2)cn1`, with more than 10 µM. Still for that read-out and setting: then `Fc1ccc(Nc2ncc3cc(Br)ccc3n2)cc1`, with more than 10 µM. Take `Nc1cccc(Nc2ncc3cc(-c4cn[nH]c4)ccc3n2)c1`: the inhibition (usually the change of the read-out against control, counted positive when it falls) at 10 µM on CYP2C9 came to 93%; at CYP3A4, 52%; against CYP1A2, 67%; on CYP2D6 it was 56%. Also, the half-life in [2] amounted to 3 min; in [3], 2 min; in [4], 29 min. Also, the IC50 in data set [1] was found to be 0.6 µM. Besides, the solubility – broadly, the concentration that dissolves in the medium under given conditions – in data set [5] turned out to be 17 µM (≈ 5.14 µg/mL). For the molecule `Nc1cccc(-c2ccc3nc(Nc4ccccc4)ncc3c2)c1`, in data set [1], the IC50 is more than 10 µM. Same read-out and setting: for `CC(=O)Nc1cccc(Nc2ncc3cc(-c4cccc(N)c4)ccc3n2)c1` the value was more than 10 µM. As to `CC(=O)Nc1cccc(Nc2ncc3cc(-c4cn[nH]c4)ccc3n2)c1`, the inhibition at 10 µM turned out to be 98% at CYP2C9, 88% against CYP3A4, 49% at CYP1A2 and 52% at CYP2D6. Besides, the half-life came out at 4 min in [2], 2 min in data set [3] and 42 min in [4]. Moreover, the IC50 in data set [1] was 0.2 µM. The solubility in data set [5] turned out to be 10 µM (≈ 3.44 µg/mL). `CC(=O)Nc1cccc(Nc2ncc3cc(Br)ccc3n2)c1`: in data set [1], the IC50 was more than 10 µM.

`Brc1ccc2nc(Nc3ccccc3)ncc2c1`: the IC50 in data set [1] was more than 10 µM.

B1: Mitogen-activated protein kinase kinase kinase 5 (Homo sapiens), Q99683 (protein)
chain: MSTEADEGITFSVPPFAPSGFCTIPEGGICRRGGAAAVGEGEEHQLPPPPPGSFWNVESAAAPGIGCPAATSSSSATRGRGSSVGGGSRRTTVAYVINEASQGQLVVAESEALQSLREACETVGATLETLHFGKLDFGETTVLDRFYNADIAVVEMSDAFRQPSLFYHLGVRESFSMANNIILYCDTNSDSLQSLKEIICQKNTMCTGNYTFVPYMITPHNKVYCCDSSFMKGLTELMQPNFELLLGPICLPLVDRFIQLLKVAQASSSQYFRESILNDIRKARNLYTGKELAAELARIRQRVDNIEVLTADIVINLLLSYRDIQDYDSIVKLVETLEKLPTFDLASHHHVKFHYAFALNRRNLPGDRAKALDIMIPMVQSEGQVASDMYCLVGRIYKDMFLDSNFTDTESRDHGASWFKKAFESEPTLQSGINYAVLLLAAGHQFESSFELRKVGVKLSSLLGKKGNLEKLQSYWEVGFFLGASVLANDHMRVIQASEKLFKLKTPAWYLKSIVETILIYKHFVKLTTEQPVAKQELVDFWMDFLVEATKTDVTVVRFPVLILEPTKIYQPSYLSINNEVEEKTISIWHVLPDDKKGIHEWNFSASSVRGVSISKFEERCCFLYVLHNSDDFQIYFCTELHCKKFFEMVNTITEEKGRSTEEGDCESDLLEYDYEYDENGDRVVLGKGTYGIVYAGRDLSNQVRIAIKEIPERDSRYSQPLHEEIALHKHLKHKNIVQYLGSFSENGFIKIFMEQVPGGSLSALLRSKWGPLKDNEQTIGFYTKQILEGLKYLHDNQIVHRDIKGDNVLINTYSGVLKISDFGTSKRLAGINPCTETFTGTLQYMAPEIIDKGPRGYGKAADIWSLGCTIIEMATGKPPFYELGEPQAAMFKVGMFKVHPEIPESMSAEAKAFILKCFEPDPDKRACANDLLVDEFLKVSSKKKKTQPKLSALSAGSNEYLRSISLPVPVLVEDTSSSSEYGSVSPDTELKVDPFSFKTRAKSCGERDVKGIRTLFLGIPDENFEDHSAPPSPEEKDSGFFMLRKDSERRATLHRILTEDQDKIVRNLMESLAQGAEEPKLKWEHITTLIASLREFVRSTDRKIIATTLSKLKLELDFDSHGISQVQVVLFGFQDAVNKVLRNHNIKPHWMFALDSIIRKAVQTAITILVPELRPHFSLASESDTADQEDLDVEDDHEEQPSNQTVRRPQAVIEDAVATSGVSTLSSTVSHDSQSAHRSLNVQLGRMKIETNRLLEELVRKEKELQALLHRAIEEKDQEIKHLKLKSQPIEIPELPVFHLNSSGTNTEDSELTDWLRVNGADEDTISRFLAEDYTLLDVLYYVTRDDLKCLRLRGGMLCTLWKAIIDFRNKQT
On to B1, for which the Michaelis-Menten constant (Km) – broadly, the substrate concentration at which the rate is half of its maximum – is 7.01 µM in [6], 9.3 µM in data set [7] and 7.79 µM in [8].
